{"source": "patent US20250179078A1", "about": "“INHIBITORS OF NLRP3” (PTC THERAPEUTICS, INC., priority 2022, published 2025)", "note": "pIC50: −log10 of the molar value.", "data": [{"target": "T1, NLRP3 (Homo sapiens, UniProt Q96P20)", "T1 construct": "host or cells: THP-1 cells differentiated with PMA", "T1 sequence (Q96P20 whole entry)": "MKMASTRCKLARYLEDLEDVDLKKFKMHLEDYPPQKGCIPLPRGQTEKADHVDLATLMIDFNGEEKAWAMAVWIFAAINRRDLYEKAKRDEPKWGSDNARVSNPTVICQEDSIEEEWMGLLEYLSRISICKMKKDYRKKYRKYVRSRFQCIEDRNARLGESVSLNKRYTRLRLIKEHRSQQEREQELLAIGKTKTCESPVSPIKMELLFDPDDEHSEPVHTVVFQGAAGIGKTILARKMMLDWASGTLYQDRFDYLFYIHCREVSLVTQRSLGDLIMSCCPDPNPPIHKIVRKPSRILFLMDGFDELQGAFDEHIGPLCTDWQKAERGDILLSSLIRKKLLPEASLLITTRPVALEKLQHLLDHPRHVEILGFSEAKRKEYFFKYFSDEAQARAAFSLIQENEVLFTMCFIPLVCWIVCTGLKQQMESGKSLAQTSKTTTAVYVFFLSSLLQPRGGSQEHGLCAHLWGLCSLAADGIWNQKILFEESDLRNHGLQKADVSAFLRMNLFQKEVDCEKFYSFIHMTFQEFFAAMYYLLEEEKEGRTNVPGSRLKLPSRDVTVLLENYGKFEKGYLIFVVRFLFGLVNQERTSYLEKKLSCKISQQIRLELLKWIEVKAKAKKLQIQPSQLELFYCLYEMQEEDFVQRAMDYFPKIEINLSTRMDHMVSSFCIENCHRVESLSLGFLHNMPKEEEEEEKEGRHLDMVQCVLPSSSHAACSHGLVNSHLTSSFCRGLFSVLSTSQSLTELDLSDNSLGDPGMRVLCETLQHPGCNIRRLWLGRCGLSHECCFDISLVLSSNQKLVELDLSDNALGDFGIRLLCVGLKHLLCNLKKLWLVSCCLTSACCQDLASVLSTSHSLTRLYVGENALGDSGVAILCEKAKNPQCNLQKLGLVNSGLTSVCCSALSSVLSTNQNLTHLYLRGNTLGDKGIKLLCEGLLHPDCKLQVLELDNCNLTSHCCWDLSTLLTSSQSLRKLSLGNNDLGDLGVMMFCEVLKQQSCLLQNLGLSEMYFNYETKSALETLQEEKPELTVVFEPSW", "experiment": "IL-1β Secretion Assay (NLRP3-dependent IL1β secretion in THP1 cells)", "format": "cell-based", "conditions": "PMA-differentiated THP-1 cells; compounds incubated 20 h; 2.5 μM Nigericin 3 h; HTRF IL-1β readout; read-out: IC50 IL-1β Inhibition", "outline": "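THP-1 cells differentiated with 100 ng/mL PMA for 24 h, then given compound (7-point 3-fold series, 1:200 from DMSO) for 20 h in RPMI+5% FBS. NLRP3 activated with 2.5 μM nigericin for 3 h; secreted IL-1β measured by HTRF; IC50 from logistic fit of % inhibition.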", "values": [{"smiles": "CCN1CCC[C@@H](Nc2nnc(-c3ccc(C(F)(F)F)cc3OCF)c3cccn23)C1", "note": "[Compound 169, N-[(3R)-1-ethylpiperidin-3-yl]-1-[2-(fluoromethoxy)-4-(trifluoromethyl)phenyl]pyrrolo[1,2-d][1,2,4]triazin-4-amine]", "pIC50": "> 9.00"}, {"smiles": "CN1CC[C@@H](O)[C@@H](Nc2nnc(-c3ccc(OC(F)F)cc3OC(F)(F)F)c3cccn23)C1", "note": "[Compound 170, (3S,4R)-3-({1-[4-(difluoromethoxy)-2-(trifluoromethoxy)phenyl]pyrrolo[1,2-d][1,2,4]triazin-4-yl}amino)-1-methylpiperidin-4-ol]", "pIC50": "> 9.00"}, {"smiles": "CCN1CC[C@@H](O)[C@@H](Nc2nnc(-c3ccc(OC(F)F)cc3OC(F)(F)F)c3cccn23)C1", "note": "[Compound 171, (3S,4R)-3-({1-[4-(difluoromethoxy)-2-(trifluoromethoxy)phenyl]pyrrolo[1,2-d][1,2,4]triazin-4-yl}amino)-1-ethylpiperidin-4-ol]", "pIC50": "> 9.00"}, {"smiles": "CC(Nc1nnc(-c2ccc(OC(F)F)cc2OC(F)(F)F)c2cccn12)c1cccc(O)c1", "note": "(stereo not shown) [Compound 172, 3-[1-({1-[4-(difluoromethoxy)-2-(trifluoromethoxy)phenyl]pyrrolo[1,2-d][1,2,4]triazin-4-yl}amino)ethyl]phenol]", "pIC50": "> 9.00"}, {"smiles": "OCCN1CCC[C@@H](Nc2nnc(-c3ccc(C(F)(F)F)cc3OCF)c3cccn23)C1", "note": "[Compound 173, 2-[(3R)-3-({1-[2-(fluoromethoxy)-4-(trifluoromethyl)phenyl]pyrrolo[1,2-d][1,2,4]triazin-4-yl}amino)piperidin-1-yl]ethan-1-ol]", "pIC50": "> 9.00"}, {"smiles": "COc1ccc(-c2nnc(NC3CCNC3=O)n3cccc23)c(OC(F)F)c1", "note": "(stereo not shown) [Compound 174, 3-({1-[2-(difluoromethoxy)-4-methoxyphenyl]pyrrolo[1,2-d][1,2,4]triazin-4-yl}amino)pyrrolidin-2-one]", "pIC50": "7.00 to 8.00"}, {"smiles": "CCN1CC[C@@H](O)[C@@H](Nc2nnc(-c3ccc(OC)cc3OC(F)F)c3cccn23)C1", "note": "[Compound 175, (3S,4R)-3-({1-[2-(difluoromethoxy)-4-methoxyphenyl]pyrrolo[1,2-d][1,2,4]triazin-4-yl}amino)-1-ethylpiperidin-4-ol]", "pIC50": "> 9.00"}, {"smiles": "COc1ccc(-c2nnc(N[C@H]3CCC[C@@H](CO)C3)n3cccc23)c(OC(F)F)c1", "note": "[Compound 176, [(1R,3S)-3-({1-[2-(difluoromethoxy)-4-methoxyphenyl]pyrrolo[1,2-d][1,2,4]triazin-4-yl}amino)cyclohexyl]methanol]", "pIC50": "7.00 to 8.00"}, {"smiles": "COc1ccc(-c2nnc(N[C@@H]3CCCC[C@H]3O)n3cccc23)c(OC(F)F)c1", "note": "[Compound 177, (1R,2R)-2-({1-[2-(difluoromethoxy)-4-methoxyphenyl]pyrrolo[1,2-d][1,2,4]triazin-4-yl}amino)cyclohexan-1-ol]", "pIC50": "7.00 to 8.00"}, {"smiles": "CCN1CCC[C@@H](Nc2nnc(-c3ccc(C(F)(F)F)cc3OC3CC3)c3cccn23)C1", "note": "[Compound 178, 1-[2-(cyclopropyloxy)-4-(trifluoromethyl)phenyl]-N-[(3R)-1-ethylpiperidin-3-yl]pyrrolo[1,2-d][1,2,4]triazin-4-amine]", "pIC50": "8.00 to 9.00"}, {"smiles": "OCCN1CCC[C@@H](Nc2nnc(-c3ccc(C(F)(F)F)cc3OC3CC3)c3cccn23)C1", "note": "[Compound 179, 2-[(3R)-3-({1-[2-(cyclopropyloxy)-4-(trifluoromethyl)phenyl]pyrrolo[1,2-d][1,2,4]triazin-4-yl}amino)piperidin-1-yl]ethan-1-ol]", "pIC50": "7.00 to 8.00"}, {"smiles": "CCN1CCC[C@@H](Nc2nnc(-c3ccc(OC)cc3OC3CC3)c3cccn23)C1", "note": "[Compound 182, 1-[2-(cyclopropyloxy)-4-methoxyphenyl]-N-[(3R)-1-ethylpiperidin-3-yl]pyrrolo[1,2-d][1,2,4]triazin-4-amine]", "pIC50": "8.00 to 9.00"}, {"smiles": "Cc1ccc(-c2nnc(N[C@H]3C[C@@H](CO)C3)n3cncc23)c(OC(F)F)c1", "note": "[Compound 183, [(1s,3s)-3-({1-[2-(difluoromethoxy)-4-methylphenyl]imidazo[1,5-d][1,2,4]triazin-4-yl}amino)cyclobutyl]methanol]", "pIC50": "7.00 to 8.00"}]}]}
